Series [1] in a line: pH of xylitol crystal prepared from xylitol solutions with different compositions. It is filed as physicochemical. To be noted: crystal prepared from xylitol solution of the stated composition. An excerpt: In the production process of xylitol, there are two main factors can affect the pH of the product, one of which is ion exchange process. When xylitol solution passes through cation and anion exchange columns, H^+ and OH^− in resins are exchanged out, respectively. Due to the difference of exchange capacity between cation exchange column and anion exchange column, xylitol crystal products may have different pH. The other factor affecting the pH of xylitol product is the difference in composition of xylitol solution, which leads to a great difference in the pH of xylitol crystal.

The conditions of series [2]: cited from earlier work.
Series [3] is described as follows: pH of crude xylitol crystal after first crystallization. To be noted: after first centrifuge and fluidization drying, before recrystallization. It is filed as physicochemical. As for the experimental part:
Step 12, constant vacuum degree of the first crystallization kettle 7 was maintained at −0.095 MPa to further evaporate the xylitol concentrate solution. When temperature of the first crystallization kettle 7 dropped to 65° C., 0.001% xylitol crystal seeds (80-100 mesh) were added, and the system was maintained at constant temperature of 65° C. for evaporation and crystallization for 8 h. Finally, a crude xylitol crystal with purity of 99.5% and pH of 4.87 was obtained by centrifugal separation treatment of the first centrifuge 8 and fluidization drying treatment of the fluidization drying bed 9. At the same time, the primary centrifugal mother liquor C with purity of 90% obtained by the centrifugal separation treatment of the first centrifuge 8 was backset to the blending tank 1.
Step 22, constant vacuum degree of the first crystallization kettle 7 was maintained at −0.095 MPa to further evaporate the xylitol concentrate solution. When temperature of the first crystallization kettle 7 dropped to 64° C., 0.001% xylitol crystal seeds (100-120 mesh) were added, and the system was maintained at constant temperature of 64° C. for evaporation and crystallization for 12 h. Finally, crude xylitol crystal with purity of 99.6% and pH of 4.9 was obtained by centrifugal separation treatment of the first centrifuge 8 and fluidization drying treatment of the fluidization drying bed 9. At the same time, the primary centrifugal mother liquor C with purity of 89.5% obtained by the centrifugal separation treatment of the first centrifuge 8 was backset to the blending tank 1.
Step 32, constant vacuum degree of the first crystallization kettle 7 was maintained at −0.095 MPa to further evaporate the xylitol concentrate solution. When temperature of the first crystallization kettle 7 dropped to 66° C., 0.002% xylitol crystal seeds (60-80 mesh) were added, and the system was maintained at constant temperature of 66° C. for evaporation and crystallization for 10 h. […]

Series [4] in a line: Acidity (pH) of xylitol crystal by the Chinese Pharmacopoeia method, 10 g crystal to 20 ml water. It is filed as physicochemical. To be noted: 10 g crystal to 20 ml pure water; for pH of xylitol after one month storage: crystal stored at room temperature for one month; for pH of xylitol after one week storage: crystal stored at room temperature for one week; for pH of xylitol: freshly prepared crystal. As for the experimental part:
The acidity of prepared xylitol crystal B was measured according to the method in the Chinese Pharmacopoeia. Xylitol solution was prepared with pure water in a proportion of 10 g crystal to 20 ml water. The pH of the xylitol solution in this Example was measured to be 6.06. After the obtained xylitol crystal B were stored at room temperature for one week, the pH of the xylitol solution was measured to be 6.03 using the same method. After the xylitol crystal was stored at room temperature for one month, the pH of the xylitol solution was measured to be 6.01 using the same method. The acidity of prepared xylitol crystal B was measured according to the method in the Chinese Pharmacopoeia. Xylitol solution was prepared with pure water in a proportion of 10 g crystal to 20 ml water. The pH of the xylitol solution in this Example was measured to be 6.12. After the obtained xylitol crystal B was stored at room temperature for one week, the pH of the xylitol solution was measured to be 6.08 using the same method. After the xylitol crystal was stored at room temperature for one month, the pH of the xylitol solution was measured to be 6.05 using the same method. The acidity of prepared xylitol crystal B was measured according to the method in the Chinese Pharmacopoeia. Xylitol solution was prepared with pure water in a proportion of 10 g crystal to 20 ml water. The pH of the xylitol solution in this Example was measured to be 6.09. After the obtained xylitol crystal B was stored at room temperature for one week, the pH of the xylitol solution was measured to be 6.07 using the same method. After the xylitol crystals were stored at room temperature for one month, the pH of the xylitol solution was measured to be 6.05 using the same method. The acidity of prepared xylitol crystal was measured according to the method in the Chinese Pharmacopoeia. Xylitol solution was prepared with pure water in a proportion of 10 g crystal to 20 ml water. The pH of the xylitol solution in this comparative example was measured to be 5.02. After the obtained xylitol crystals was stored at room temperature for one week, the pH of the xylitol solution was measured to be 4.85 using the same method. After the xylitol crystal was stored at room temperature for one month, the pH of the xylitol solution was measured to be 4.64 using the same method. The acidity of prepared xylitol crystal was measured according to the method in the Chinese Pharmacopoeia. Xylitol solution was prepared with pure water in a proportion of 10 g crystal to 20 ml water. The pH of the xylitol solution in this Contrast was measured to be 5.04. After the obtained xylitol crystal was stored at room temperature for one week, the pH of the xylitol solution was measured to be 4.81 using the same method. After the xylitol crystal was stored at room temperature for one month, the pH of the xylitol solution was measured to be 4.68 using the same method. The acidity of prepared xylitol crystal was measured according to the method in the Chinese Pharmacopoeia. Xylitol solution was prepared with pure water in a proportion of 10 g crystal to 20 ml water. The pH of the xylitol solution in this comparative example was measured to be 5.03. After the obtained xylitol crystal was stored at room temperature for one week, the pH of the xylitol solution was measured to be 4.90 using the same method. After the xylitol crystal was stored at room temperature for one month, the pH of the xylitol solution was measured to be 4.73 using the same method.

Setting [5] is: listed as Comparative Example 1.
[6] abbreviates: listed as Comparative Example 2.
Setting [7] is: listed as Comparative Example 3.

With `OC[C@@H](O)[C@H](O)[C@@H](O)CO` [100% xylitol, xylitol], in series [1], the “pH of xylitol crystal” value worked out at 6.02.
Regarding `O=C[C@@H](O)[C@H](O)[C@H](O)CO` [Arabinose], the “Acidity coefficient (pKa)” value in series [2] is reported as 12.46 ± 0.2.
Take `OC[C@@H](O)[C@H](O)[C@@H](O)CO` [Example 1 crude xylitol crystal, xylitol]: the “pH of crude xylitol crystal” value in series [3] worked out at 4.87.
`OC[C@@H](O)[C@H](O)[C@@H](O)CO` [Example 1, xylitol]: in series [4], the “pH of xylitol after one month storage” value was 6.01, the “pH of xylitol after one week storage” value turned out to be 6.03 and the pH of xylitol was determined as 6.06.
`OC[C@@H](O)[C@H](O)[C@@H](O)CO` [Example 2 crude xylitol crystal, xylitol]: in series [3], the “pH of crude xylitol crystal” value came to 4.9.
On to `OC[C@@H](O)[C@H](O)[C@@H](O)CO` [Example 2, xylitol], for which, in series [4], the “pH of xylitol after one month storage” value stood at 6.05, the “pH of xylitol after one week storage” value is reported as 6.08 and the pH of xylitol was 6.12.
Turning to `OC[C@@H](O)[C@H](O)[C@@H](O)CO` [Example 3 crude xylitol crystal, xylitol], the “pH of crude xylitol crystal” value in series [3] is reported as 4.99.
As for `OC[C@@H](O)[C@H](O)[C@@H](O)CO` [Example 3, xylitol], in series [4], the “pH of xylitol after one month storage” value came out at 6.05, the “pH of xylitol after one week storage” value came out at 6.07 and the pH of xylitol came out at 6.09.
Regarding `OC[C@@H](O)[C@H](O)[C@@H](O)CO` [Xylitol], the “Acidity coefficient (pKa)” value in series [2] was 13.24 ± 0.2.
Consider `O=C[C@H](O)[C@@H](O)[C@H](O)CO` [Xylose], for which the “Acidity coefficient (pKa)” value in series [2] was 12.14.
As for `OC[C@@H](O)[C@H](O)[C@@H](O)CO` [compound 1, xylitol], in series [4], the “pH of xylitol after one month storage” value is reported as 4.64, the “pH of xylitol after one week storage” value is given as 4.85 and the pH of xylitol stood at 5.02. For the same compound, in series [4] (setting [5]), the “pH of xylitol after one month storage” value was determined as 4.64, the “pH of xylitol after one week storage” value came out at 4.85 and the pH of xylitol is 5.02.
For the compound `OC[C@@H](O)[C@H](O)[C@@H](O)CO` [compound 2, xylitol], in series [4], the “pH of xylitol after one month storage” value turned out to be 4.68, the “pH of xylitol after one week storage” value was 4.81 and the pH of xylitol is recorded as 5.04. Also, in series [4] (setting [6]), the “pH of xylitol after one month storage” value is 4.68, the “pH of xylitol after one week storage” value is listed as 4.81 and the pH of xylitol was found to be 5.04.
In the case of `OC[C@@H](O)[C@H](O)[C@@H](O)CO` [compound 3, xylitol], in series [4], the “pH of xylitol after one month storage” value is listed as 4.73, the “pH of xylitol after one week storage” value amounted to 4.90 and the pH of xylitol came to 5.03. Also, in series [4] (setting [7]), the “pH of xylitol after one month storage” value stood at 4.73, the “pH of xylitol after one week storage” value is 4.90 and the pH of xylitol was 5.03.
For `O=C[C@H](O)[C@@H](O)[C@@H](O)[C@H](O)CO` [galactose], in series [2], the “Acidity coefficient (pKa)” value was 12.35.

Values taken from patent publication US12187667B2, “Preparation systems and preparation methods for high-quality xylitol crystals” (ZHEJIANG HUAKANG PHARMACEUTICAL CO., LTD., priority 2022, dated 2025).
